Test systems include COLO 205 colon; MOLT-4 leukemia; DLD-1 colon; SNB-78 CNS; A549 NSCLC; UO-31 renal; NCI-H522 lung; EKVX NSCLC; MCF7 breast; DU-145 prostate.
Common to all, as to experiment: DTP human tumour cell line panel, 48 h

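Assay format: 96-well plates, 48-hour exposure. GI50 is the concentration that inhibits growth by half. At the TGI there is no net growth.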

A word on the TGI: it is the concentration at which net growth stops. Low readings indicate greater sensitivity of the cells, high ones lower sensitivity of the cells. For orientation: GI50 means the concentration at which growth is held to half of that of the control.

Regarding `O=C(/C=C/c1ccccc1)/C=C/c1ccccc1`, the TGI with COLO 205 colon was > 100 µM; with MOLT-4 leukemia, 86.5 µM; in the assay with DLD-1 colon it was 32.5 µM; in the assay with SNB-78 CNS, > 100 µM; with A549 NSCLC it was > 100 µM; with UO-31 renal, > 100 µM.

Consider `CN=NN(C)C(=O)NC`, for which the total growth inhibition concentration (TGI) in the assay with COLO 205 colon, in the assay with MOLT-4 leukemia, in the assay with DLD-1 colon, in the assay with NCI-H522 lung, in the assay on A549 NSCLC and in the assay with UO-31 renal was > 100 µM each time.

Turning to `CCOC(=O)c1[nH]c(COC(C)=O)c(CCCOC(C)=O)c1CCCOC(C)=O`, the TGI in the assay with COLO 205 colon was > 100 µM; with MOLT-4 leukemia, > 100 µM; with EKVX NSCLC, > 100 µM; in the assay on SNB-78 CNS, > 100 µM; in the assay with NCI-H522 lung it was 52.5 µM; with A549 NSCLC, > 100 µM.

Regarding `O=C(CCC/C(CC(=O)c1ccc(Br)cc1)=N\O)Nc1ccccc1`, the TGI in the assay with COLO 205 colon, in the assay on MOLT-4 leukemia, with EKVX NSCLC, in the assay with DLD-1 colon, in the assay on SNB-78 CNS and with A549 NSCLC was > 100 µM throughout. Further, in the assay on UO-31 renal, the TGI is > 100 µM.

`O=C(CCC(=O)Nc1cccc(Cl)c1)CC(=O)c1ccc(Cl)cc1`: the TGI in the assay with COLO 205 colon, in the assay with MOLT-4 leukemia, in the assay on SNB-78 CNS, in the assay on NCI-H522 lung, with A549 NSCLC and with UO-31 renal was > 100 µM in each case.

Turning to `CCOC(=O)[C@H](CCCNC(=O)OC(C)(C)C)NCc1ccc(OC)c(OC)c1`, the TGI in the assay on COLO 205 colon, with MOLT-4 leukemia, in the assay on EKVX NSCLC, in the assay with DLD-1 colon, with NCI-H522 lung and with A549 NSCLC was > 100 µM in each case. Moreover, the TGI in the assay with UO-31 renal is > 100 µM.

Take `O=S(O)CCCCSSCc1ccccc1CSSCCCCS(=O)O`: the TGI was 31.2 µM in the assay with COLO 205 colon; 14.5 µM with MOLT-4 leukemia; > 100 µM in the assay on EKVX NSCLC; > 100 µM with DLD-1 colon; 18.7 µM with NCI-H522 lung; > 100 µM in the assay with A549 NSCLC. Moreover, the TGI with UO-31 renal came out at 74.4 µM.

As for `NC(=O)C(=CNc1nc(-c2ccc(Cl)c(Cl)c2)cs1)C(N)=O`, the GI50 is 80 µM in the assay on MCF7 breast; > 100 µM in the assay with COLO 205 colon; 48.7 µM with MOLT-4 leukemia; 43.8 µM with EKVX NSCLC; 11.8 µM with NCI-H522 lung; > 100 µM in the assay on DU-145 prostate. For the same compound, the GI50 is 85.7 µM in the assay on A549 NSCLC and 12.1 µM in the assay on UO-31 renal. In addition, the concentration for total growth inhibition (TGI) with MCF7 breast, in the assay on COLO 205 colon, in the assay on MOLT-4 leukemia, in the assay with EKVX NSCLC, in the assay with NCI-H522 lung and with DU-145 prostate was > 100 µM each time. Further, the total growth inhibition concentration (TGI) in the assay with A549 NSCLC and in the assay on UO-31 renal was > 100 µM throughout.

With `Cc1sc2nc(NCCc3c[nH]c4ccc(Cl)cc34)[nH]c(=O)c2c1C`, the GI50 is 2.47 µM in the assay on MCF7 breast; 1.74 µM with COLO 205 colon; 2.22 µM in the assay on MOLT-4 leukemia; 2.76 µM in the assay with EKVX NSCLC; 1.79 µM with NCI-H522 lung; 3.59 µM in the assay with DU-145 prostate. In addition, the GI50 with A549 NSCLC was 2.13 µM; in the assay on UO-31 renal, 1.22 µM. The TGI was 7 µM with MCF7 breast; 3.77 µM in the assay with COLO 205 colon; 7.27 µM in the assay with MOLT-4 leukemia; 3.91 µM in the assay on NCI-H522 lung; 13 µM in the assay with DU-145 prostate; 5.09 µM in the assay with A549 NSCLC. The compound further registered a total growth inhibition concentration (TGI) with UO-31 renal of 2.77 µM.

In the case of `OCCCCC#Cc1ccccc1C#Cc1cccc(O)c1`, the GI50 in the assay with MCF7 breast was 35.7 µM; with COLO 205 colon, 19.7 µM; with MOLT-4 leukemia, 18 µM; in the assay on EKVX NSCLC, 23.5 µM; with NCI-H522 lung, 14.3 µM; with DU-145 prostate it was 17.4 µM. Besides, the GI50 is 15.7 µM with A549 NSCLC and 15.9 µM in the assay with UO-31 renal. Besides, the TGI is > 100 µM with MCF7 breast; 35.6 µM in the assay with COLO 205 colon; 40.7 µM with MOLT-4 leukemia; 57 µM in the assay on EKVX NSCLC; 28.9 µM in the assay on NCI-H522 lung; 40.9 µM in the assay with DU-145 prostate. Besides, the TGI is 32.2 µM in the assay on A549 NSCLC and 32.5 µM in the assay with UO-31 renal.

As to `CCN(CC)CC(C)(C)C(=O)/C=C/c1ccc(Cl)c(Cl)c1`, the GI50 in the assay on MCF7 breast was 0.959 µM; in the assay with COLO 205 colon it was 1.7 µM; with MOLT-4 leukemia it was 2.37 µM; in the assay on EKVX NSCLC it was 1.69 µM; in the assay on NCI-H522 lung, 1.71 µM; in the assay on DU-145 prostate, 1.41 µM. The GI50 was 2.38 µM with A549 NSCLC and 1.32 µM in the assay with UO-31 renal. Also, the TGI in the assay with MCF7 breast is 2.8 µM; in the assay with COLO 205 colon, 3.34 µM; in the assay with MOLT-4 leukemia, 8.11 µM; with EKVX NSCLC, 3.1 µM; in the assay with NCI-H522 lung it was 3.2 µM; in the assay on DU-145 prostate it was 2.71 µM. Further, the figures for the TGI in the assay with A549 NSCLC and in the assay on UO-31 renal were 4.88 µM and 2.72 µM, respectively.

For `O=C(CCCN1CC=C(n2c(=O)[nH]c3ccccc32)CC1)c1ccc(F)cc1`, the GI50 was 31.1 µM in the assay on MCF7 breast; 25 µM in the assay on COLO 205 colon; 30.5 µM with MOLT-4 leukemia; 16.7 µM in the assay on EKVX NSCLC; 65.1 µM in the assay with NCI-H522 lung; 68.1 µM with DU-145 prostate. In addition, the GI50 with A549 NSCLC is 70.2 µM; in the assay with UO-31 renal, 27.5 µM. Besides, the concentration for total growth inhibition (TGI) in the assay with MCF7 breast is > 100 µM; in the assay on COLO 205 colon, 75.5 µM; in the assay on MOLT-4 leukemia, 91.8 µM; with EKVX NSCLC, 80.1 µM; in the assay on NCI-H522 lung, > 100 µM; in the assay on DU-145 prostate it was > 100 µM. Also, the TGI in the assay with A549 NSCLC and in the assay on UO-31 renal was > 100 µM in each case.

With `COc1cc(/C=C2\C(=O)Nc3ccc(F)cc32)cc(OC)c1OC`, the GI50 with MCF7 breast was 4.73 µM; in the assay on COLO 205 colon it was 62.7 µM; with MOLT-4 leukemia, 9.26 µM; with EKVX NSCLC, 33.1 µM; in the assay with NCI-H522 lung it was 22.8 µM; in the assay with DU-145 prostate it was 18.4 µM. In addition, the GI50 is 51.8 µM in the assay with A549 NSCLC and 11.9 µM with UO-31 renal. The TGI in the assay on MCF7 breast, in the assay on COLO 205 colon, in the assay on MOLT-4 leukemia, in the assay on EKVX NSCLC, in the assay with NCI-H522 lung and in the assay on DU-145 prostate was > 100 µM in each case. The TGI in the assay with A549 NSCLC and in the assay with UO-31 renal was > 100 µM each time.

For `O=C1/C(=C\c2cccn2Cc2ccccc2)c2ccccc2N1c1c(Cl)cccc1Cl`, the GI50 in the assay with MCF7 breast is 0.0898 µM; with COLO 205 colon, 1.36 µM; with MOLT-4 leukemia, > 100 µM; with EKVX NSCLC, 1.42 µM; with NCI-H522 lung it was > 100 µM; in the assay on DU-145 prostate, > 100 µM. The GI50 in the assay on A549 NSCLC was 8.32 µM; in the assay with UO-31 renal, 3.89 µM. Besides, the total growth inhibition concentration (TGI) is > 100 µM in the assay with MCF7 breast; 6.26 µM with COLO 205 colon; > 100 µM with MOLT-4 leukemia; > 28.1 µM in the assay with EKVX NSCLC; > 100 µM with NCI-H522 lung; > 100 µM in the assay on DU-145 prostate. The TGI in the assay on A549 NSCLC and in the assay with UO-31 renal was > 100 µM each time.

For the compound `Nc1nc(Nc2ccccc2)c2ncn(Cc3cc4c(cc3Br)OCO4)c2n1`, the GI50 was < 0.01 µM in the assay on MCF7 breast; 0.0716 µM in the assay with COLO 205 colon; 0.196 µM in the assay on MOLT-4 leukemia; < 0.0276 µM with EKVX NSCLC; 0.0316 µM in the assay with NCI-H522 lung; 0.184 µM with DU-145 prostate. Further, the figures for the GI50 with A549 NSCLC and with UO-31 renal were 0.0491 µM and 0.129 µM, respectively. Besides, the TGI is 31.9 µM in the assay on MCF7 breast; 0.375 µM with COLO 205 colon; > 100 µM with MOLT-4 leukemia; > 100 µM in the assay with EKVX NSCLC; 0.207 µM with NCI-H522 lung; 13.7 µM in the assay with DU-145 prostate. The TGI is 11.5 µM in the assay with A549 NSCLC and > 100 µM with UO-31 renal.

With `Cc1n(Cc2ccc3ccccc3c2)cc[n+]1Cc1ccc2ccccc2c1`, the GI50 in the assay with MCF7 breast was 1.1 µM; in the assay on COLO 205 colon, 0.369 µM; in the assay on MOLT-4 leukemia, 1.76 µM; in the assay with EKVX NSCLC, 2.32 µM; with NCI-H522 lung, 0.256 µM; in the assay with DU-145 prostate, 1.87 µM. In addition, the values for the GI50 in the assay on A549 NSCLC and in the assay on UO-31 renal were 3.81 µM and 9.26 µM, respectively. In addition, the concentration for total growth inhibition (TGI) with MCF7 breast stood at 3.33 µM; in the assay with COLO 205 colon it was 1.59 µM; with MOLT-4 leukemia, 5.61 µM; in the assay with EKVX NSCLC, 17.1 µM; in the assay with NCI-H522 lung it was 1.81 µM; in the assay with DU-145 prostate, 12.1 µM. Moreover, the TGI in the assay with A549 NSCLC worked out at 21.3 µM; in the assay with UO-31 renal, 22 µM.

As for `Cc1ccc(Nc2nc(N)c(C(=O)c3ccc(C#N)cc3)s2)cc1`, the GI50 in the assay on MCF7 breast is 0.369 µM; in the assay on COLO 205 colon, 0.279 µM; with MOLT-4 leukemia, 0.468 µM; in the assay with EKVX NSCLC, 0.573 µM; in the assay with NCI-H522 lung, 0.221 µM; in the assay on DU-145 prostate, 0.675 µM. The values for the GI50 in the assay on A549 NSCLC and in the assay on UO-31 renal were 0.739 µM and 0.644 µM, respectively. The TGI with MCF7 breast is > 100 µM; with COLO 205 colon it was 6.64 µM; in the assay on MOLT-4 leukemia, > 100 µM; with EKVX NSCLC, > 100 µM; in the assay with DU-145 prostate, > 100 µM; in the assay with A549 NSCLC, > 76.6 µM. The total growth inhibition concentration (TGI) in the assay with UO-31 renal is > 100 µM.

In the case of `NC(N)=N/N=C/c1cc(Cl)cc(Cl)c1O`, the TGI in the assay with MCF7 breast, in the assay with COLO 205 colon, in the assay with MOLT-4 leukemia, in the assay with EKVX NSCLC, in the assay on NCI-H522 lung and in the assay with DU-145 prostate was > 100 µM each time. Moreover, the TGI in the assay on A549 NSCLC and with UO-31 renal was > 100 µM in each case.

The record behind these values is PubChem BioAssay (NCI).
